From patent publication US8211939B2, “Isosorbide nitrates” (Lacer, S.A., priority 2008, dated 2012)
Like-named read-outs stand apart in the source and are kept apart here.

Key:
[1] = system: coronary angina caused by coronary obstruction (35% ferric chloride patch on left anterior descending coronary artery); assay: Anti-anginal activity, ferric chloride-induced coronary angina (ECG S-wave); format: in vivo, Male Wistar rats; details: Rattus norvegicus, po, rat, 90 μmol/kg p.o., vs untreated control, read-out: Antianginal activity (% inhibition of S-wave decrease)
Experimental: Anti-Anginal Activity Assessment
Male Wistar rats weighing 250-300 g were used after an acclimatization period of five days, and animals were divided in groups of 8 for each treatment. In all experiments, rats were treated with 90 μmol/kg of each product by oral gavage using an administration volume of 10 ml/kg unless otherwise stated. The vehicle used to dissolve the products consisted of 1% Cremophor EL 27963, 1% Tween 80 and 0.5% Methocel E-15 in distilled water. […]
The procedure used to test the anti-anginal activity was that described by Hirata Y et al (Hirata Y, et al. Journal of Cardiovascular Pharmacology 1998, 31: 322-326).
After treatment, animals were anaesthetized with pentobarbital and electrodes were set for standard limb lead II electrocardiogram recording (Grass polygraph model 7, amplifier 7DA and pre-amplifier 7P1).
To induce coronary angina caused by coronary obstruction, a 35%-ferric chloride embedded mini patch was applied onto the left anterior descending coronary artery just below the left auricle. In all groups, after application of the patch, the ECG was recorded during 10 minutes. The shortening of the S-wave amplitude was measured on the recorded ECG. Data were collected with a Biopac system model MP100 connected to a Pentium PC. Results were expressed as % inhibition of S-wave decrease vs the untreated control.

[2] = system: thrombus formation in the carotid artery (70% FeCl3 patch); assay: Anti-thrombotic activity, FeCl3-induced carotid artery thrombosis; format: in vivo, Male Wistar rats; details: Rattus norvegicus, po, 90 μmol/kg p.o., % animals protected, read-out: Antithrombotic activity (% protection)
Experimental: Anti-Thrombotic Activity Assessment Experimental Procedure Male Wistar rats weighing 250-300 g were used after an acclimatization period of five days, and animals were divided in groups of 8 animals each for the treatments. […] The vehicle used to dissolve the products consisted of 1% Cremophor EL 27963, 1% Tween 80 and 0.5% Methocel E-15 in distilled water. After a fasting period of 8 hours with free access to drinking water each product was given by gavage 1 hour before induction of thrombosis. Thrombus formation was induced using a patch embedded with 70% FeCl3 solution applied onto the carotid artery using the same procedure described by Feuerstein G Z et al and later modified by Kurz et al (Feuerstein G Z, et al Artherioscler. Thromb. Vasc. Biol. 1999, 19: 2554-2562, Kurz K D, et al Thromb. Res. 1990, 60:269-280). Anti-thrombotic efficacy was evaluated at different times after dosage. Rats were anesthetized with sodium pentobarbital and then placed on a dorsal position over a thermal blanket laid on a surgical board and heated at 37° C. The left carotid artery was dissected and an electromagnetic blood flow probe was placed on the artery to measure blood flow. After application of the thrombotic stimuli, blood flow was monitored for the following 30 minutes. The vessel was considered occluded by the thrombus when flow reached 0.0 ml/min. Data were analysed by contingency tables using the Graph Pad Prism Program. P values were calculated using Fisher's exact test, values of p<0.05 were considered statistically significant. Results were expressed as % animals protected.

Compound | inhibition in vivo at 90 µmol/kg ([1]; 1 h, 1 h) | inhibition in vivo at 90 µmol/kg ([1]; 4 h, 4 h) | responders at 90 µmol/kg ([2]; 1 h, 1 h after dosage) | responders at 90 µmol/kg ([2]; 2 h, 2 h after dosage) | responders at 90 µmol/kg ([2]; 4 h, 4 h after dosage) | responders at 90 µmol/kg ([2]; 0.5 h, ½ h after dosage) | inhibition in vivo at 90 µmol/kg ([1]; 2 h, 2 h)
CCCS(=O)(=O)[C@H]1CO[C@H]2[C@@H]1OC[C@H]2O[N+](=O)[O-] [Ej. 8, (3R,3aS,6S,6aS)-6-(propylsulfonyl)hexahydrofuro[3,2-b]furan-3-yl nitrate] | 77% | 25% | 100% | 50% | 0% | – | –
CC(=O)S[C@@H]1CO[C@H]2[C@@H]1OC[C@H]2O[N+](=O)[O-] [Ej. 10, S-(3R,3aS,6R,6aS)-6-(nitrooxy)hexahydrofuro[3,2-b]furan-3-yl ethanethioate] | 69% | 57% | 75% | 83% | 40% | 67% | –
CCS[C@@H]1CO[C@H]2[C@@H]1OC[C@H]2O[N+](=O)[O-] [Ej. 11, (3R,3aS,6R,6aS)-6-(ethylthio)hexahydrofuro[3,2-b]furan-3-yl nitrate] | 41% | – | 66% | – | 0% | – | –
CCCS[C@@H]1CO[C@H]2[C@@H]1OC[C@H]2O[N+](=O)[O-] [Ej. 12, (3R,3aS,6R,6aS)-6-(propylthio)hexahydrofuro[3,2-b]furan-3-yl nitrate] | 14% | 0% | 32% | – | 16% | – | 0%
CCS(=O)(=O)[C@@H]1CO[C@H]2[C@@H]1OC[C@H]2O[N+](=O)[O-] [Ej. 15, (3R,3aS,6R,6aS)-6-(ethylsulfonyl)hexahydrofuro[3,2-b]furan-3-yl nitrate] | 21% | 0% | 9% | – | 0% | – | 0%
CCCS(=O)(=O)[C@@H]1CO[C@H]2[C@@H]1OC[C@H]2O[N+](=O)[O-] [Ej. 16, (3R,3aS,6R,6aS)-6-(propylsulfonyl)hexahydrofuro[3,2-b]furan-3-yl nitrate] | 32% | 30% | 40% | – | 20% | – | –
